Test results as given in PubChem BioAssay (NCI).
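Results reflect a 48-hour exposure of cells in 96-well plates to compound at five concentrations. Abbreviation: GI50, concentration required for 50% inhibition of growth. At the TGI there is no net growth.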

Assays:
Assay in all cases: NCI-60 cell line screen, 48 h
RXF 393 renal = test system: RXF 393 renal
SK-MEL-28 melanoma = test system: SK-MEL-28 melanoma
U251 CNS = test system: U251 CNS
NCI-H23 lung = test system: NCI-H23 lung
SK-MEL-2 melanoma = test system: SK-MEL-2 melanoma
SF-295 CNS = test system: SF-295 CNS
NCI-H460 lung = test system: NCI-H460 lung
SF-268 CNS = test system: SF-268 CNS
HOP-92 NSCLC = test system: HOP-92 NSCLC
SNB-75 CNS = test system: SNB-75 CNS

| SMILES | TGI (RXF 393 renal) [µM] | TGI (SK-MEL-28 melanoma) [µM] | TGI (U251 CNS) [µM] | TGI (NCI-H23 lung) [µM] | TGI (SK-MEL-2 melanoma) [µM] | TGI (SF-295 CNS) [µM] | TGI (NCI-H460 lung) [µM] | TGI (SF-268 CNS) [µM] | TGI (HOP-92 NSCLC) [µM] | TGI (SNB-75 CNS) [µM] | GI50 (RXF 393 renal) [µM] | GI50 (SK-MEL-28 melanoma) [µM] | GI50 (U251 CNS) [µM] | GI50 (NCI-H23 lung) [µM] | GI50 (SK-MEL-2 melanoma) [µM] | GI50 (SF-295 CNS) [µM] | GI50 (NCI-H460 lung) [µM] | GI50 (SF-268 CNS) [µM] | GI50 (SNB-75 CNS) [µM] |
| --- | --- | --- | --- | --- | --- | --- | --- | --- | --- | --- | --- | --- | --- | --- | --- | --- | --- | --- | --- |
| Cc1ccc(-c2cc(-c3ccc(Cl)cc3)nc(/N=C3\C(=O)N(CN4CCOCC4)c4ccccc43)n2)cc1 | 30.9 | > 100 | 77 | 46 | 37.2 | > 100 | 50.8 | > 100 | 62.7 | 70.2 |  |  |  |  |  |  |  |  |  |
| COC(=O)C(=O)C(C(=O)C1=NS(=O)(=O)c2cc(S(N)(=O)=O)c(Cl)cc2N1)c1nc2ccc(C(=O)c3ccccc3)cc2[nH]c1=O (stereo not drawn) | > 100 | > 100 | > 100 | > 100 | > 100 | > 100 | > 100 | > 100 |  |  |  |  |  |  |  |  |  |  |  |
| CC(N)C(=O)OCN1C(=O)C2C3C=CC(C2C1=O)C1C2C(=O)N(COC(=O)C(C)N)C(=O)C2C31 (stereo not drawn) | 38.7 | 41.4 | 50.3 | 43.2 | 39 | > 100 | 34.3 | 47.9 | > 100 | 85.5 |  |  |  |  |  |  |  |  |  |
| CCN1CCN(c2nc3ccccc3nc2C(=O)c2ccc(OC)cc2)CC1 | 43.5 | > 100 | > 100 | > 100 | > 100 | > 100 | > 100 | > 100 | > 100 | > 100 |  |  |  |  |  |  |  |  |  |
| C=C1C(=O)OC2/C=C(\C)C3OC3/C=C(/C(=O)OC)C(O)C(OC(=O)C3(C)OC3C)C12 (stereo not drawn) | 2.22 | 3.17 | 16.8 | 3.5 | 6.46 | 27 | 17.8 | 29.9 | 5.68 | 26.3 |  |  |  |  |  |  |  |  |  |
| CS/C(C#N)=C(\C#N)SC | 5.11 | 37.7 | > 100 | 79.4 | 31.7 | 53.8 | 81.4 | 58 |  | > 100 |  |  |  |  |  |  |  |  |  |
| Cc1ccccc1[P+](C)(c1ccccc1C)c1ccccc1C | > 100 | 35.8 | 28.4 | 27.3 | 34.7 |  | > 100 | > 100 | 58 | 40.8 |  |  |  |  |  |  |  |  |  |
| CN(C)CC1CCCC(CN2CCCCC2)C1=O (stereo not drawn) | 26.6 | 27.6 | > 66.9 | 35.8 | 31.1 | > 100 | > 68.6 | 40.2 | 3.8 | 43.2 |  |  |  |  |  |  |  |  |  |
| [O-]c1c[n+](CCCC[n+]2cc([O-])on2)no1 | > 100 | > 100 | > 100 | > 100 | > 100 | > 100 | > 100 | > 100 | > 100 | > 100 |  |  |  |  |  |  |  |  |  |
| CC1=C(C#N)C23C(=O)c4ccccc4C(O)=C2C(=O)C=CC3(O)N1 (stereo not drawn) | 9.74 | 5.23 | > 100 | 31.9 | 22.5 | 66.9 | 31.1 | 26.2 | 6.38 | 4.56 |  |  |  |  |  |  |  |  |  |
| Cn1cc(-c2csc(-c3cn(C)c4ccc(Br)cc34)n2)c2cnccc21 | 3.2 | 3.3 | 3.27 | 3.65 | 3.76 | 3.4 | 3.47 | 3.67 |  | 2.6 | 1.7 | 1.85 | 1.78 | 1.93 | 1.93 | 1.81 | 1.87 | 1.9 | 1.28 |
| Oc1cccc(-c2ccc3c4c2O[C@H]2c5[nH]c6ccccc6c5C[C@@]5(O)[C@@H](C3)N(CC3CC3)CC[C@]425)c1 | 2.63 |  |  | 5.17 | 5.13 | 3.21 |  | 3.06 | 4.42 |  |  |  |  |  |  |  |  |  |  |
| Cc1cccc(O)c1-c1nnc(CCCCCCCCc2nnc(-c3c(C)cccc3O)n2N)n1N |  | > 100 | 67.5 | > 100 | > 83.3 | > 100 | > 100 | > 100 | > 31.6 | > 58.1 |  |  |  |  |  |  |  |  |  |
| O=c1oc2ccccc2n1P(=O)(n1c(=O)oc2ccccc21)n1c(=O)oc2ccccc21 | > 100 | > 100 | > 100 | > 100 | > 100 | > 100 | > 100 | > 100 | > 100 | > 100 |  |  |  |  |  |  |  |  |  |
| CC(=O)OCc1ccc2oc(=O)c(C(=O)Oc3cccc(Cl)c3)cc2c1 | > 100 | > 100 | > 100 | > 100 | > 100 | > 100 | > 100 | > 100 | 43.5 | > 100 |  |  |  |  |  |  |  |  |  |
| CO[C@H]1ON=C(c2c(C)cc(C)cc2C)[C@@H]1C1(c2ccccc2)ON=C(c2c(C)cc(C)cc2C)O1 (stereo partly drawn) | > 100 | > 100 | > 100 | > 100 | > 100 | > 100 | > 100 | > 100 | > 100 |  |  |  |  |  |  |  |  |  |  |
| NC(=O)c1ccc(NS(=O)(=O)c2ccc(N)cc2)nc1 |  | > 100 | > 100 | > 100 | > 100 | > 100 | > 100 | > 100 | > 100 | > 100 |  |  |  |  |  |  |  |  |  |
| CN1C(=O)CN2C(Cl)(Cl)C2(c2ccccc2F)c2cc([N+](=O)[O-])ccc21 (stereo not drawn) | 66 | > 100 | > 100 | > 100 | > 100 | > 100 | > 100 | > 100 | 91.4 | > 100 |  |  |  |  |  |  |  |  |  |
| CN(C)CCCNC(=O)c1cc(NC(=O)c2cc(NS(=O)(=O)c3ccc4c(c3)C(=O)c3ccccc3C4=O)cn2C)cn1C | > 100 | > 100 | > 100 | > 100 | > 100 | > 100 | > 100 | > 100 | > 100 | > 100 |  |  |  |  |  |  |  |  |  |
| CCN1C(=S)n2cccc2C1CC(=O)c1ccc(Cl)cc1 (stereo not drawn) | > 100 | > 100 | > 100 | > 100 | > 100 | > 100 | > 100 | > 100 | > 100 | > 100 |  |  |  |  |  |  |  |  |  |
| C1CCC(OCc2nnn3c2CCC3)OC1 (stereo not drawn) | > 100 | > 100 | > 100 | > 100 | > 100 | > 100 | > 100 |  | > 100 | > 100 |  |  |  |  |  |  |  |  |  |
| O=Nc1c(-c2c(O)[nH]c3ccccc23)[nH]c2ccccc12 | 13.2 | 27.7 | > 65.4 | > 44.6 | 7.62 | 99.2 | 28.7 | > 74.1 | > 29.6 | 16.5 |  |  |  |  |  |  |  |  |  |
| COc1ccc(CC2c3cc(OC)c(OC)c(OC)c3CC[N+]2(C)C)cc1Oc1ccc(CC2c3cc4c(c(OC)c3CC[N+]2(C)C)OCO4)cc1 (stereo not drawn) |  | > 100 | > 100 | > 100 | > 100 | > 100 | > 100 | > 100 | > 100 | > 100 |  |  |  |  |  |  |  |  |  |
| Nc1ccc(Oc2ccc(C3(c4ccc(Oc5ccc(N)cc5)cc4)C4CC5C6CC7CC5C3C(C7)C6C4)cc2)cc1 | 22.6 | > 100 | > 70 | > 95.3 | > 100 | > 100 | > 100 | > 100 | 49 | > 100 |  |  |  |  |  |  |  |  |  |
| C[C@H]1C(=O)O[C@@H]1[C@H]1COC(C)(C)O1 | > 100 | > 100 | > 100 | > 100 | > 100 | > 100 | > 100 | > 100 | > 100 | > 100 |  |  |  |  |  |  |  |  |  |
| Cc1nc2c(O)cc3c4c(=O)n(C)c(=O)n(C)c4n(Cc4ccccc4)c3c2nc1C | 26.7 | 28 | 35.4 | 38 | 31.9 | > 100 | > 100 | 32.9 | 27.2 |  |  |  |  |  |  |  |  |  |  |
| Nc1nc(Cl)cc(NCCCNc2cc(Cl)nc(N)n2)n1 | > 100 | > 100 | > 100 | > 100 | > 100 | > 100 | > 100 | > 100 | > 100 | > 100 |  |  |  |  |  |  |  |  |  |
| c1ccc(CSc2ccccc2CN2CCN(Cc3ccccc3SCc3ccccc3)CCN(Cc3ccccc3SCc3ccccc3)CC2)cc1 |  | 4.61 | 2.08 | 2.67 | 2.83 | 2.45 | 2.87 | 10.3 | 2 | 4.18 |  |  |  |  |  |  |  |  |  |
| CCCCC(C(=O)N/N=C/c1ccc([N+](=O)[O-])o1)C(=O)N/N=C/c1ccc([N+](=O)[O-])o1 | 5.07 | 14.7 | 10.3 | 4.65 | 36.1 | 31.4 | 35.6 | 20.3 | 4.08 | 33.5 |  |  |  |  |  |  |  |  |  |
